“Also recorded” adds a separate entry of the source.
Key:
gastric cancers = assay: K-M Plotter meta-analysis on chemo-sensitivity, gastric cancer; format: in vivo, human; conditions: gastric cancer patients
Text: (§1) To address small sample sizes in individual datasets when predicting drug sensitivity, we performed meta-analysis on chemo-sensitivity for several cancer types using K-M Plotter.
(§2) For meta-analysis using K-M Plotter for prognosis, we chose to use the top CES terile as high CES group, and the rest as low CES group. For meta-analysis on sensitivity to adjuvant therapies using K-M Plotter, we chose to use automatically computed best performing CES threshold for patient stratification in all dataset to increase detection sensitivity, even though tertile or median method gave similar results with statistical significance for many datasets. The K-M Plotter software only incorporates genes with probes present on both U133A+B to ensure comparability between datasets for meta-analysis, thus it excluded 7 CEN/KT genes including CENP-H, -W, -L, -K, -P, SPC24 and NUF2, of which 5 are also CES genes. Therefore, we used the 9 remaining CES genes, e.g., CENP-A, HJURP, MIS18B, CENP-N, CENP-M, CENP-U, ZWINT, NDC80, and SPC25, as a simplified version of the CES when using K-M Plotter.

[1] = test system: CCLE (Cancer Cell Line Encyclopedia) cell lines; assay: CCLE cell lines: IC50 of Topo I inhibitors versus CES value; format: cell-based; conditions: CCLE cell lines binned into CES quartiles
Text: We mined the Cancer Cell Line Encyclopedia (CCLE) data, which contains information on both drug treatment and gene expression (Barretina et al., 2012). CCLE cell lines were binned into quartiles according to their CES values, we compared the top and bottom CES quartiles for the IC50 of the Topo I inhibitors and DNA damaging agents irinotecan and topotecan.
The Statistical Analysis of Microarrays (SAM) Excel add-on package (the website at www-stat.stanford.edu/˜tibs/SAM/) was used to identify differences between normal and tumor tissues in expression levels of CEN/KT genes (FDR≤0.05 and fold changes ≥2). Sample clustering was performed on the CEN/KT gene expression profiles using hierarchical clustering in Cluster 3.0 and Java Treeview 1.1.6r4 to group samples by centroid. For CCLE drug sensitivity, analysis was performed in Excel (Microsoft) and GraphPad. Kaplan-Meier survival curves for the CES system were generated for patients to evaluate differences in disease-free survival (DFS), stratified into groups of high (upper tertile), intermediate (middle tertile) and low (lower tertile) CES to evaluate differences in disease-free survival (DFS). […] Five-year survival was analyzed by chi-square test for significance.

ER+ breast cancer = assay: K-M Plotter meta-analysis on chemo-sensitivity, ER+ breast cancer relapse-free survival; conditions: ER+ breast cancer patients under the named therapy
Text: as §1, §2

[2] = test system: late stage ovarian cancers; assay: K-M Plotter meta-analysis on chemo-sensitivity, ovarian cancer overall survival; format: in vivo, human; conditions: ovarian cancer patients, mostly late stage, under the named adjuvant therapy
Text: as §1, §2

For O=c1[nH]cc(F)c(=O)[nH]1 [5-FU, 5-fluorouracil], the “prediction power of CES for sensitivity” value (gastric cancers) was “no significant prediction power”.
With CCc1c2c(nc3ccc(OC(=O)N4CCC(N5CCCCC5)CC4)cc13)-c1cc3c(c(=O)n1C2)COC(=O)[C@]3(O)CC [irinotecan] the “average IC50, top CES quartile compared to bottom CES quartile” value [1] was “significantly lower IC50s; also recorded: significantly more sensitive”.
With CC/C(=C(\c1ccccc1)c1ccc(OCCN(C)C)cc1)c1ccccc1 [tamoxifen] the “HR associated with high CES, relapse-free survival (RFS)” value (ER+ breast cancer) was 1.80.
For CC[C@@]1(O)C(=O)OCc2c1cc1n(c2=O)Cc2cc3c(CN(C)C)c(O)ccc3nc2-1 [topotecan], the “average IC50, top CES quartile compared to bottom CES quartile” value [1] was “significantly lower IC50s; also recorded: significantly more sensitive” and the “HR associated with high CES, overall survival” value [2] was “.63”.

Reference: US11434535B2, “Centromere/kinetochore protein genes for cancer diagnosis, prognosis and treatment selection” (The Regents of the University of California, priority 2014, dated 2022)
